The source of these data is patent publication US6608087B1, “Gyrase inhibitors and uses thereof” (Vertex Pharmaceuticals Incorporated, priority 2000, dated 2003).

In general, Ki refers to a measure of affinity in units of concentration, obtained from inhibition or displacement.

The test addresses E. coli gyrase A2B2 (Escherichia coli, UniProt P0AES6). The test is described as follows: ATPase assay, E. coli gyrase A2B2 (coupled pyruvate kinase/lactate dehydrogenase). The class given is biochemical. Conditions: 30° C., 0.9 mM ATP, 40 nM enzyme, read-out: Activity against E. coli gyrase (Ki). The method, then:
The ATP hydrolysis activity of DNA gyrase was measured by coupling the production of ADP through pyruvate kinase/lactate dehydrogenase to the oxidation of NADH. This method has been described previously. (Tamura and Gellert, 1990, J. Biol. Chem.265, 21342-21349).
ATPase assays were carried out at 30° C. in buffered solutions containing 100 mM TRIS pH 7.6, 1.5 mM MgCl2, and 150 mM KCl. The coupling system contained (final concentrations) 2.5 mM phosphoenol pyruvate, 200 μM nicotinamide adenine dinucleotide (NADH), 1 mM DTT, 30 ug/ml pyruvate kinase, and 10 ug/ml lactate dehydrogenase. 40 nM enzyme (374 kDa Gyr A2B2 from E coli) and a DMSO solution of the inhibitor to a final concentration of 4% were added and the reaction mixture allowed to incubate for 10 minutes at 30° C. The reaction was then started by the addition of ATP to a final concentration of 0.9 mM and the rate of NADH disappearance at 340 nm, measured over the course of 10 minutes. Ki values were determined from rate versus. inhibitor concentration profiles.
As for `CCOC(=O)c1cc(-c2sc(-c3ccccc3)nc2CN(CC)CC)n[nH]1` [IA-69], the Ki is more than 1.5 µM. As for `CCOC(=O)c1cc(-c2sc(-c3ccccc3)nc2CN2CCOCC2)n[nH]1` [IA-66], the figure is more than 1.5 µM; as for `CCOC(=O)c1cc(-c2cnn(-c3cccc(Cl)c3)c2C)n[nH]1` [ID-28, 1′-(3-Chloro-phenyl)-5′-methyl-1H,1′H-[3,4′]bipyrazolyl-5-carboxylic Acid Ethyl Ester], more than 1.5 µM; as for `CC(C)OC(=O)NCc1cc(-c2sc(-c3ccccc3)nc2-c2ccccc2)n[nH]1` [IA-46], more than 1.5 µM.

Consider `COC(=O)NCc1cc(-c2sc(-c3ccccc3)nc2N2CCCCC2C)n[nH]1` (centres unmarked) [IA-30], for which the Ki was less than 0.5 µM. `COC(=O)NCc1cc(-c2sc(-c3ccccc3)nc2N2CCN(Cc3ccccc3)CC2)n[nH]1` [IA-18]: the inhibition constant (Ki) lay in the range of 0.5 to 1.5 µM. The figure for `CCOC(=O)c1cc(-c2sc(-c3ccccc3)nc2CN2CCNCC2)n[nH]1` [IA-67] is 0.5 to 1.5 µM.

`COC(=O)NCc1cc(-c2sc(-c3ccccc3)nc2N2CCNCC2)n[nH]1` [IA-37]: the Ki was more than 1.5 µM.
